This is an account of results in patent US20120196335A1, “LIGF-TYPE TRANSFORMANTS FOR BIOCONVERSION OF LIGNIN-DERIVED COMPOUNDS” (priority 2010, published 2012).

B1: LigF2: N. aromaticivorans beta-etherase polypeptide, glutathione S-transferase-like protein, GenBank ABD27301.1, SEQ ID NO:541 (protein)
chain: MALKYYHAEPLANSLKSMVPLKEKGLAYESIYVDLHKFEQHQPWFTAINPEGQVPVLDHDGTIITHTTVINEYLEDAFPDAQPADAPLRPRDPVGAARMRYWNKFIDEHVMNYVSMHGWHRMVGVIARNIASGDFEKLLESIPLPDQRKKWATARSGFSEADLANATAKIEYALDKVEKQLGETKWLAGDTYTLADINFYSHCGAMVERMFPEMEVARRAPRLCEWRDRVAARPAVAEALKSEDRTAPGLRVWSGEVR
B2: ligE1: N. aromaticivorans beta-etherase polypeptide, glutathione S-transferase-like protein, GenBank ABD26841.1, SEQ ID NO:101 (protein)
chain: MAANNTITFYDLALSTGATISPFVWATKYALKHKGFDLDVVPGGFTGILERTGGKTERLPAIVDDGEFVLDSWGIVEYLDAKYPDRPVLIPHESVAATLKALDNWFWNAAVGPWMFCFCQDYRDLSLPQDHEYVTHSREKMLGRKLEEVQAGREERLPKISAALEPLRAALAQHQWLGGSSPNYADYRIMGGILFTASVCKTPVLANDDPLRDWIERCLDLYGGLGRHPGLFPLFGLEQREGDPDLFNRAAGQGGIYKRNTGPESTRAETQRITEGMKK
B3: ABD27309.1: N. aromaticivorans putative beta-etherase polypeptide LigF-3, SEQ ID NO:545 (protein)
chain: MDEVSLYHWEPNANSGKPMLALMEKGVPFSSHYIDMLQFDQHKPEYLAINPQGTIPAMTHNGQVLTESTAIMEYVNDRFDGPDLMPADAQDRWRVRWWMKFMDQWLGPSFSMIGWSVFVGPMVRQRDPAELAAAIDRIPLPERRTAWRKAINGDFSESEMAESRRRVGLGIAKLEEELGKRPYVGSNQYSLADINIFNSTYSLPISQPDLAGKDRTPNIMRWLKRVYTREAVKKTWAMGKTDLAHRYGLIMAEIEG
B4: ABD26530.1: N. aromaticivorans putative beta-etherase polypeptide LigF-1, SEQ ID NO:539 (protein)
chain: MVIPLGEDNTIMLKLYSFGPAANSMKPLLTVFEKGLDVEKHRLDPAKFEHHTDWFKAINPRGQVPALVDGDKVVTESTVICEYLEDEYPTEVALRPADSFGKAQMRIWTKWVDEYFCWCVSTIGWHRYVGNMVKSLSDAEFEEKVKAIPVIEQQVKWRRAREGFPQDMLDEEMRKIAYSVRKLDDHLADHEWLVPGQYTLADICNFAIANGMQFGFAELVNKQDTPHLVRWIEQINERPAVKQMFAQVELEKLGPRE
B5: LigG: S. paucimobilis glutathione-eliminating glutathione S transferase, ligG gene product (protein)
chain: MSGASARSLGKGSAPPGPVPEGQIRVYSMRFCPFAQRTLMVLKAKGIRHEIININLKNKPEWFFEKNPFGLVPVLENTQGHLITESVITCEYLDEAYPEKKLFPDDPYEKACQKMTFELFSKVPSLVTSFIRAKRKEDHPGIKEELKKEFSKLEEAMANKRTAFFGGNSLSMIDYLIWPWFQRLEALELNECIDHTPKLKLWMATMQEDPVASSHFIDAKTYRDYLSLYLQDSPEACDYGL

System in one data set: not listed separately
Nature of the data set: in vitro biochemical assay for beta-etherase activity on fluorescent substrate MUAV (clarified E. coli cell extracts). Conditions: 0.1 mM MUAV substrate; E. coli cell extracts expressing the protein. From the text:
The model substrate synthesis 150 for use in the biochemical screening for selective activity can be outsourced through a contract research organization (CRO). The enzyme discovery effort can initially be focused on identifying potential beta-etherase candidate genes identified through bioinformatic methods. […] The fluorescent substrate α-O-(β-methylumbelliferyl)acetovanillone (MUAV), for example, can be used in in vitro assays to identify beta-etherase function (Acme Biosciences, Mt. View, Calif.). The formation of 4 methylumbelliferone (4MU) upon hydrolysis of the aryl ether bond can be monitored by fluorescence, for example, at λex=365 nm and λem=450 nm (or 460 nm).
The enzyme screening 155 is done to identify novel etherases 160. […] Expression of the beta-etherase genes can be done in 5 ml or 25 ml samples of the recombinant E. coli strains in LB medium using induction with IPTG. Following induction, and cell harvest, cell pellets can be lysed using the BPER (Invitrogen) cell lysis system. […] The formation of 4 methylumbelliferone (4MU) upon hydrolysis of the aryl ether bond in MUAV can be monitored by fluorescence at λex=365 nm and λem=460 nm, and can provide quantitative measurement of beta-etherase function. Cell extracts of E. coli transformed with the S. paucimobilis ligE and ligF genes can be the assay positive controls. Test or unknown samples can include, for example, E. coli strains expressing putative beta-etherase genes from N. aromaticovorans.
This example describes a method for gene expression in E. coli, as well as beta-etherase biochemical assays. Expression of known and putative beta-etherase genes was performed using 5 ml cultures of the recombinant E. coli strains described herein in Luria Broth medium by induction of gene expression using isopropylthiogalactoside (IPTG) to a final concentration of 0.1 mM. Following induction, and cell harvest, the cells were disrupted using either sonication or the BPER (Invitrogen) cell lysis system.
In vitro reactions were performed in a total volume of 200 ul and contained: 25 mM TrisHCl pH 7.5; 0.5 mM dithiothreitol; 1 mM glutathione; 0.05 mM or 0.1 mM MUAV; 10 ul of clarified cell extract used to initiate the reactions. Following incubation for 2.5 hours at room temperature, a 50 ul sample of the reactions was terminated using 150 uL of 300 mM glycine/NaOH buffer pH 9. The formation of 4 methylumbelliferone (4MU) upon hydrolysis of the aryl ether bond was monitored by the increase in fluorescence at λex=360 nm and λem=450 nm using a Spectramax UV/visible/fluorescent spectrophotometer.
The total protein concentrations of the cell lysates were determined using the BCA reagent system for protein quantification (Pierce).
Induction might be also performed using IPTG concentrations in the range of 0.01-1 mM. Cell disruption might be also performed using toluene permeabilization, French pressure techniques, or using multiple freeze/thaw cycles in conjunction with lysozyme. Assay conditions might be varied to include TrisHCl at 10-150 mM concentrations and in the pH range of 6.5-8.5; 0-2 mM dithiothreitol; 0.05-2 mM glutathione; 0.01-5 mM MUAV substrate; 22-42° C. reaction temperatures. The biochemical assay might be performed as a fixed time point assay with reaction times ranging from 5 minutes-12 hours, or performed continuously without quenching with glycine/NaOH buffer to extract enzyme kinetic parameters.
Consider B1, for which the “total activity (beta-etherase)” value worked out at 1206 rfu/ug.

B2: the “total activity (beta-etherase)” value was 529 rfu/ug.

Still in this data set, the particulars now being: MUAV substrate.
B3: the “beta-etherase activity on the MUAV substrate (in words)” value (“beta-etherase activity … (in words)” below) is reported as “beta-etherase activity”.

As for B4, the “beta-etherase activity … (in words)” value is given as “beta-etherase activity”.

For B1, the “beta-etherase activity … (in words)” value is given as “beta-etherase activity” and the “fold more efficient than S. paucimobilis LigF protein” value is listed as “approximately 2 fold”.

With B2, the “beta-etherase activity … (in words)” value was “beta-etherase activity” and the “fold more efficient than S. paucimobilis ligE beta-etherase enzyme” value is “approximately 75 fold”.

Another data set deals with Escherichia coli.
Assay: not given
Conditions: benzaldehyde derivatives, each alone; cited from earlier work.
Regarding `O=Cc1ccc(O)c(O)c1O` [2,3,4-trihydroxybenzaldehyde], the “antibacterial activity against Escherichia coli” value is reported as “antibacterial activity”.

As to `O=Cc1cccc(O)c1O` [2,3-dihydroxybenzaldehyde], the “antibacterial activity against Escherichia coli” value was “antibacterial activity”.

Take `O=Cc1c(O)cc(O)cc1O` [2,4,6-trihydroxybenzaldehyde]: the “antibacterial activity against Escherichia coli” value is recorded as “antibacterial activity”.

For `O=Cc1ccc(O)cc1O` [2,4-dihydroxybenzaldehyde], the “antibacterial activity against Escherichia coli” value is reported as “antibacterial activity”.

For the molecule `O=Cc1cc(O)ccc1O` [2,5-dihydroxybenzaldehyde], the “antibacterial activity against Escherichia coli” value is “antibacterial activity”.

`COc1cccc(C=O)c1O` [2-hydroxy-3-methoxybenzaldehyde]: the “antibacterial activity against Escherichia coli” value is given as “antibacterial activity”.

For `COc1ccc(O)c(C=O)c1` [2-hydroxy-5-methoxybenzaldehyde], the “antibacterial activity against Escherichia coli” value is reported as “antibacterial activity”.

`O=Cc1ccccc1O` [2-hydroxybenzaldehyde]: the “antibacterial activity against Escherichia coli” value is recorded as “antibacterial activity”.

As to `COc1cc(O)cc(OC)c1C=O` [4-hydroxy-2,6-dimethoxybenzaldehyde], the “antibacterial activity against Escherichia coli” value is reported as “antibacterial activity”.

Still in this data set, the particulars now being: each compound alone; known; cited from earlier work.
As to `O=Cc1ccc(O)cc1` [4-hydroxybenzaldehyde], the “antimicrobial activity against Escherichia coli” value is reported as “antimicrobial activity”.

Take `O=Cc1ccc(CO)o1` [5-hydroxymethylfurfural]: the “antimicrobial activity against Escherichia coli” value is “antimicrobial activity”.

For `O=Cc1ccco1` [furfural], the “antimicrobial activity against Escherichia coli” value is “antimicrobial activity”.

Take `COc1cc(C=O)cc(OC)c1O` [syringaldehyde]: the “antimicrobial activity against Escherichia coli” value is listed as “antimicrobial activity”.

`COc1cc(C=O)ccc1O` [vanillin]: the “antimicrobial activity against Escherichia coli” value is on record as “antimicrobial activity”.

A further data set has as its system Saccharomyces cerevisiae.
Assay: not given
Conditions: each compound alone; cited from earlier work.
`COc1ccc(C=O)cc1OC` [Veratraldehyde]: the “antifungal activity against the yeast Saccharomyces cerevisiae” value (from here on “antifungal activity”) is “significant antifungal activities”.

For `O=C(O)C=Cc1ccccc1` [cinnamic acid], the “antifungal activity” value is reported as “significant antifungal activities”.

On to `O=C(O)/C=C/c1cccc(O)c1` [m-coumaric acid], for which the “antifungal activity” value is “significant antifungal activities”.

On to `O=C(O)/C=C/c1ccccc1O` [o-coumaric acid], for which the “antifungal activity” value was “significant antifungal activities”.

On to `O=C(O)/C=C/c1ccc(O)cc1` [p-coumaric acid], for which the “antifungal activity” value was “significant antifungal activities”.

Regarding `COc1cc(C(=O)O)ccc1O` [vanillic acid], the “antifungal activity” value was “significant antifungal activities”.

Consider `COc1cc(CCC(C)=O)ccc1O` [vanillylacetone], for which the “antifungal activity” value is on record as “significant antifungal activities”.

System in another data set: not given
Assay: not given
Conditions: LigDFEG gene cluster, FIG. 2B; cited from earlier work.
Turning to “LigD: S. paucimobilis C alpha-dehydrogenase, ligD gene product”, the “enzyme activity shown by gene product” value is on record as “Cα-dehydrogenase activity”.

For the molecule B5, the “enzyme activity shown by gene product” value was “glutathione lyase activity”.
